Measured values taken from patent US4808409A, “Low cariogenic sweetening agents” (Board of Trustees, University of Illinois, priority 1984, dated 1989).
Converted amounts (≈) assume the structure as drawn.

Columns and labels:
[1] = Thermostability of neat hernandulcin at 100° C. by TLC; assay type: physicochemical
[2] = tested on: human taste panel; assay: Human taste panel magnitude estimation of sweetness intensity and pleasantness; conditions: for Sweetness intensity at matched concentration: sucrose 0.27 M
Excerpt: Solutions were presented to the subjects in a randomized fashion and were sampled in duplicate. After tasting, each solution was expectorated, and the mouth was washed with distilled water.

[3] = Water solubility; assay type: physicochemical
[4] = tested on: Salmonella typhimurium strain TM677; assay: Forward mutation assay; assay type: cell-based; conditions: summary in words
[5] = tested on: male Swiss-Webster mice; assay: in vivo; conditions: for Acute toxicity for mice / Mortality at doses up to 2 g/kg: in words; for Mortality at doses up to 2 g/kg: up to 2 g/kg body weight
Procedure: (§1) Compounds were suspended in a minimum volume of 1% sodium carboxymethylcellulose, and were administered by oral intubation at the doses indicated in Table II.
(§2) ^a Male SwissWebster mice (9 or 10 animals per dose).
(§3) ^d Mortality = number of mice dying within 14 days/number of starting
(§4) ^e Mortality = number of mice dying within 24 hours/number of startin

[6] = Stability in citrate-phosphate-borate buffer solutions by TLC; assay type: physicochemical
Procedure: The first of these manipulations was conducted by storage of this compound in citrate-phosphate-borate buffer solutions, at the pH levels 2, 3, 4, 6, 7, 8, 10, and 12. […] Solutions were exposed to the atmosphere after their constitution.
Compound decomposition was assessed by counting the number of zones apparent by TLC analysis 1 hour, 3 hours, 6 hours, 24 hours, 1 week and 2 weeks after solution composition.

[7] = Body weight variation in mice following oral administration; conditions: for Day 14 total body weight vs control values: Day 14, in words
Procedure: as §1

[8] = tested on: S. mutans; assay: Cariogenicity: acid production by S. mutans from sweetener; assay type: cell-based; conditions: 500 micrograms per unit volume sucrose
Procedure: In a first test, the ability of microbes to utilize this sweetener source as a nutrient and convert it to acidic by-products was determined.

[9] = in vivo; conditions: mouse, in vivo, po
Procedure: as §1, §2, §3, §4

[10] = synthetic hernandulcin, 100° C., 24 hours, TLC zone areas
[11] = natural hernandulcin 2.5 × 10^-4 M
[12] = scale 0-100, natural hernandulcin 2.5 × 10^-4 M
[13] = synthetic hernandulcin, 60° C., 1 week and 2 weeks

## CC(C)=CCC[C@@](C)(O)[C@H]1CCC(C)=CC1=O (relative stereo) [Hernandulcin, 6-(1',5'-dimethyl-1'-hydroxyhex-4'-en-1'-yl)-3-methyl-2-cyclohexen-1-one]
[1]; neat compound, read-out: Compound remaining unchanged
  remaining at 24 h: ~60%
[1]; [10]
  Conversion to 3-methyl-2-cyclohexen-1-one: ~10%
  Conversion to 6-methyl-5-hepten-2-one: ~10%
[2]; Homo sapiens, natural hernandulcin, distilled water, 17 participants, read-out: Concentration matching the sweetness of 0.27 M sucrose
  EC (sweetness equal to 0.27 M sucrose): 250 µM
[2]; in words, natural hernandulcin
  Bitterness judged by the panel: moderate bitterness
  Off- and after-tastes judged by the panel: significant off- and after-tastes
  Pleasantness judged by the panel: less pleasant than sucrose
[2]; [11]
  After-taste intensity: 30
  After-taste pleasantness: 0
  Bitterness: 15
  Off-taste intensity: 33
  Off-taste pleasantness: -5
[2]; natural hernandulcin, distilled water, 17 participants
  Concentration matching the sweetness of 0.27 M sucrose: ~250 µM
[2]; natural, 1.06 × 10^-5 M, scale 0-100, mean (standard error)
  Sweetness intensity, hernandulcin 1.06 × 10^-5 M: 9.7 (4.19)
[2]; natural, 1.06 × 10^-5 M, scale -100 to +100, mean (standard error)
  Sweetness pleasantness, hernandulcin 1.06 × 10^-5 M: 1.2 (5.58)
[2]; natural, 2.11 × 10^-5 M, scale 0-100, mean (standard error)
  Sweetness intensity, hernandulcin 2.11 × 10^-5 M: 8.8 (2.37)
[2]; natural, 2.11 × 10^-5 M, scale -100 to +100, mean (standard error)
  Sweetness pleasantness, hernandulcin 2.11 × 10^-5 M: 2.6 (6.00)
[2]; natural, 4.24 × 10^-5 M, scale 0-100, mean (standard error)
  Sweetness intensity, hernandulcin 4.24 × 10^-5 M: 8.8 (3.18)
[2]; natural, 4.24 × 10^-5 M, scale -100 to +100, mean (standard error)
  Sweetness pleasantness, hernandulcin 4.24 × 10^-5 M: 1.2 (4.18)
[2]; natural, 8.47 × 10^-5 M, scale 0-100, mean (standard error)
  Sweetness intensity, hernandulcin 8.47 × 10^-5 M: 15.8 (4.10)
[2]; natural, 8.47 × 10^-5 M, scale -100 to +100, mean (standard error)
  Sweetness pleasantness, hernandulcin 8.47 × 10^-5 M: 4.9 (7.67)
[2]; natural, 16.9 × 10^-5 M, scale 0-100, mean (standard error)
  Sweetness intensity, hernandulcin 16.9 × 10^-5 M: 39.7 (3.52)
[2]; natural, 16.9 × 10^-5 M, scale -100 to +100, mean (standard error)
  Sweetness pleasantness, hernandulcin 16.9 × 10^-5 M: 24.8 (7.99)
[2]; natural, 33.9 × 10^-5 M, scale 0-100, mean (standard error)
  Sweetness intensity, hernandulcin 33.9 × 10^-5 M: 44.4 (5.45)
[2]; natural, 33.9 × 10^-5 M, scale -100 to +100, mean (standard error)
  Sweetness pleasantness, hernandulcin 33.9 × 10^-5 M: 8.2 (10.70)
[2]; natural, 67.8 × 10^-5 M, scale 0-100, mean (standard error)
  Sweetness intensity, hernandulcin 67.8 × 10^-5 M: 62.7 (5.59)
[2]; natural, 67.8 × 10^-5 M, scale -100 to +100, mean (standard error)
  Sweetness pleasantness, hernandulcin 67.8 × 10^-5 M: -16.2 (9.78)
[2]; [12]
  Sweetness intensity at matched concentration: 40
[2]; scale -100 to +100, natural hernandulcin 2.5 × 10^-4 M
  Sweetness pleasantness at matched concentration: 15
[3]
  solubility: ~0.5 mg/mL (≈ 2120 µM)
[4]
  Mutagenicity: non-mutagenic
[5]; oral
  Acute toxicity for mice: non-toxic
  Mortality at doses up to 2 g/kg: no mortality
[6]; [13]
  Detectability of hernandulcin after storage: detectable at all pH's
  pH dependence of decomposition: greater degrees of decomposition being observed at the acid and alkaline pH extremes
[6]; synthetic hernandulcin, about 0.1 wt. %, pH 2-12, 60° C.
  Breakdown in buffer at 60° C., 1 week and 2 weeks: substantial breakdown was apparent in all solutions
[6]; synthetic hernandulcin, about 0.1 wt. %, pH 2-12, 60° C., up to 24 hours
  Decomposition in buffer at 60° C., up to 24 hours: no decomposition was observed
[6]; synthetic hernandulcin, about 0.1 wt. %, pH 2-12, room temperature, up to two weeks
  Breakdown in buffer at room temperature: no compound breakdown was evident
[6]; wide pH range, up to about 60° C.
  Stability to hydrolysis: relatively stable to hydrolysis over a wide pH range
[7]; mouse, in vivo, po
  Body weight, Day 1 (1.0 g/kg): 27.1 ± 0.8 g
  Body weight, Day 1 (2.0 g/kg): 25.6 ± 0.9 g
  Body weight, Day 3 (1.0 g/kg): 26.7 ± 0.8 g
  Body weight, Day 3 (2.0 g/kg): 26.3 ± 0.9 g
  Body weight, Day 7 (1.0 g/kg): 27.9 ± 0.8 g
  Body weight, Day 7 (2.0 g/kg): 26.0 ± 0.9 g
  Body weight, Day 14 (1.0 g/kg): 28.1 ± 0.8 g
  Body weight, Day 14 (2.0 g/kg): 27.6 ± 0.9 g
  Body weight, pre-drug (1.0 g/kg group): 29.3 ± 0.8 g
  Body weight, pre-drug (2.0 g/kg group): 26.0 ± 0.9 g

## OC[C@H]1O[C@@](CO)(O[C@H]2O[C@H](CO)[C@@H](O)[C@H](O)[C@H]2O)[C@@H](O)[C@@H]1O [Sucrose, reference compound]
[8]
  Rate of acid production at 500 micrograms per unit volume: 2.8×10^-4 mEq acid/min.
[2]; 0.031 M, scale 0-100, mean (standard error)
  Sweetness intensity, sucrose 0.031 M: 6.6 (2.44)
[2]; 0.031 M, scale -100 to +100, mean (standard error)
  Sweetness pleasantness, sucrose 0.031 M: -3.2 (6.44)
[2]; 0.062 M, scale 0-100, mean (standard error)
  Sweetness intensity, sucrose 0.062 M: 7.8 (1.96)
[2]; 0.062 M, scale -100 to +100, mean (standard error)
  Sweetness pleasantness, sucrose 0.062 M: -1.6 (7.61)
[2]; 0.125 M, scale 0-100, mean (standard error)
  Sweetness intensity, sucrose 0.125 M: 21.9 (3.30)
[2]; 0.125 M, scale -100 to +100, mean (standard error)
  Sweetness pleasantness, sucrose 0.125 M: 19.2 (5.23)
[2]; 0.25 M, scale 0-100, mean (standard error)
  Sweetness intensity, sucrose 0.25 M: 38.1 (4.43)
[2]; 0.25 M, scale -100 to +100, mean (standard error)
  Sweetness pleasantness, sucrose 0.25 M: 31.8 (6.34)
[2]; 0.50 M, scale 0-100, mean (standard error)
  Sweetness intensity, sucrose 0.50 M: 44.4 (4.63)
[2]; 0.50 M, scale -100 to +100, mean (standard error)
  Sweetness pleasantness, sucrose 0.50 M: 37.8 (5.96)
[2]; 1.0 M, scale 0-100, mean (standard error)
  Sweetness intensity, sucrose 1.0 M: 75.5 (4.73)
[2]; 1.0 M, scale -100 to +100, mean (standard error)
  Sweetness pleasantness, sucrose 1.0 M: 2.5 (9.57)
[2]; 2.0 M, scale 0-100, mean (standard error)
  Sweetness intensity, sucrose 2.0 M: 89.1 (2.93)
[2]; 2.0 M, scale -100 to +100, mean (standard error)
  Sweetness pleasantness, sucrose 2.0 M: -20.2 (12.69)
[2]; determined graphically
  Sucrose concentration providing a standard panel response to sucrose intensity: 0.27 M
[2]; [12]
  Sweetness intensity at matched concentration: 40

## CC(=O)CCC=C(C)C [6-Methyl-5-hepten-2-one, 6-methyl-5-hepten-2-one]
[5]; oral, 1.0 g/kg, 14 days, hernandulcin = synthetic
  Mortality at 1.0 g/kg: 0/9
[5]; oral, 2.0 g/kg, 14 days, hernandulcin = synthetic
  Mortality at 2.0 g/kg (14 days): 0/9
[5]; oral
  Acute toxicity for mice: essentially non-toxic
  Mortality at doses up to 2 g/kg: no mortality
[5]; oral, male mice, hernandulcin = synthetic (two enantiomers)
  Estimated LD50: > 2000 mg/kg
[7]; 1.0 g/kg oral, Day 1, hernandulcin = synthetic
  Body weight, Day 1 (1.0 g/kg): 28.2 ± 0.8 g
[7]; 1.0 g/kg oral, Day 3, hernandulcin = synthetic
  Body weight, Day 3 (1.0 g/kg): 26.3 ± 0.8 g
[7]; 1.0 g/kg oral, Day 7, hernandulcin = synthetic
  Body weight, Day 7 (1.0 g/kg): 24.7 ± 0.9 g
[7]; 1.0 g/kg oral, Day 14, hernandulcin = synthetic
  Body weight, Day 14 (1.0 g/kg): 28.0 ± 0.8 g
[7]; 1.0 g/kg oral, pre-drug, hernandulcin = synthetic
  Body weight, pre-drug (1.0 g/kg group): 27.7 ± 0.8 g
[7]; 2.0 g/kg oral, Day 1, hernandulcin = synthetic
  Body weight, Day 1 (2.0 g/kg): 28.6 ± 0.8 g
[7]; 2.0 g/kg oral, Day 3, hernandulcin = synthetic
  Body weight, Day 3 (2.0 g/kg): 26.8 ± 0.9 g
[7]; 2.0 g/kg oral, Day 7, hernandulcin = synthetic
  Body weight, Day 7 (2.0 g/kg): 25.0 ± 0.9 g
[7]; 2.0 g/kg oral, Day 14, hernandulcin = synthetic
  Body weight, Day 14 (2.0 g/kg): 24.5 ± 0.8 g
[7]; 2.0 g/kg oral, pre-drug, hernandulcin = synthetic
  Body weight, pre-drug (2.0 g/kg group): 28.8 ± 0.8 g
[7]
  Day 14 total body weight vs control values: Significant difference from controls
[7]; listed as 6-methyl-5-hepten-2-one
  Day 14 total body weight vs control values: significantly different from control values

## CC1=CC(=O)CCC1 [3-Methyl-2-cyclohexen-1-one, 3-methyl-2-cyclohexen-1-one]
[5]; mouse, in vivo, po
  Estimated LD50: 1600 ± 130 mg/kg
[5]; oral, 1.1 g/kg
  Mortality at 1.1 g/kg: 0/10
[5]; oral, 1.3 g/kg
  Mortality at 1.3 g/kg: 2/10
[5]; oral, 1.4 g/kg
  Mortality at 1.4 g/kg: 4/10
[5]; oral, 1.6 g/kg
  Mortality at 1.6 g/kg: 5/10
[5]; oral, 2.0 g/kg, 24 hours
  Mortality at 2.0 g/kg (24 hours): 8/10
[5]; oral, 2.4 g/kg
  Mortality at 2.4 g/kg: 10/10
[5]; oral
  Acute toxicity for mice: essentially non-toxic
[9]
  LD50 at 24 h: < 2000 mg/kg
